Common to all, as to assay type: biochemical
In experiment [1] the target is T1, HDAC1 (Homo sapiens, UniProt Q13547).
T1 construct: purchased Enzo Life Sciences
Briefly: HDAC Inhibition Screening Assay (FLUOR DE LYS Fluorimetric Drug Discovery Kit), HDAC1. As to conditions: for inhibition at 2 µM: 2 μM compound; for inhibition at 10 µM: 10 μM compound; for inhibition at 50 µM: 50 μM compound. Put shortly:
(§1)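 Compounds at 2 μM, 10 μM and 50 μM were each tested against HDAC1, HDAC2 and HDAC3 using a two-step fluorimetric assay. Results are given as percent of basal control after baseline subtraction.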

Experiment [2] concerns the target T2, HDAC2 (Homo sapiens, UniProt Q92769).
T2 construct: purchased Enzo Life Sciences
Briefly: HDAC Inhibition Screening Assay (FLUOR DE LYS Fluorimetric Drug Discovery Kit), HDAC2. As to conditions: for inhibition at 2 µM: 2 μM compound; for inhibition at 10 µM: 10 μM compound; for inhibition at 50 µM: 50 μM compound. Put shortly: as §1

Experiment [3] has as its target T3, HDAC3 (Homo sapiens, UniProt O15379).
T3 construct: purchased Enzo Life Sciences
Briefly: HDAC Inhibition Screening Assay (FLUOR DE LYS Fluorimetric Drug Discovery Kit), HDAC3. As to conditions: for inhibition at 2 µM: 2 μM compound; for inhibition at 10 µM: 10 μM compound; for inhibition at 50 µM: 50 μM compound. Summed up: as §1

For experiment [4], the target named is T4, ATX (autotaxin) (Homo sapiens, UniProt Q13822).
T4 construct: purchased Cayman 10803
Briefly: Autotaxin Inhibition Screening Assay (choline release from LPC, LPC-CR). As to conditions: for inhibition at 4 µM: 4 μM compound; for inhibition at 20 µM: 20 μM compound; for inhibition at 50 µM: 50 μM compound. Summed up: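 Released choline from 100 μM 14:0 LPC, detected via choline oxidase–HRP–homovanillic acid fluorescence (320/450 nm) kinetically over 90 min, reports activity of 20 ng ATX. Buffer: 50 mM Tris pH 8.0, 50 mM CaCl2, 0.01% Triton X-100; test compounds 4, 20, 50 μM; percent inhibition from blank-subtracted slopes relative to vehicle.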

T3 sequence (O15379 whole entry): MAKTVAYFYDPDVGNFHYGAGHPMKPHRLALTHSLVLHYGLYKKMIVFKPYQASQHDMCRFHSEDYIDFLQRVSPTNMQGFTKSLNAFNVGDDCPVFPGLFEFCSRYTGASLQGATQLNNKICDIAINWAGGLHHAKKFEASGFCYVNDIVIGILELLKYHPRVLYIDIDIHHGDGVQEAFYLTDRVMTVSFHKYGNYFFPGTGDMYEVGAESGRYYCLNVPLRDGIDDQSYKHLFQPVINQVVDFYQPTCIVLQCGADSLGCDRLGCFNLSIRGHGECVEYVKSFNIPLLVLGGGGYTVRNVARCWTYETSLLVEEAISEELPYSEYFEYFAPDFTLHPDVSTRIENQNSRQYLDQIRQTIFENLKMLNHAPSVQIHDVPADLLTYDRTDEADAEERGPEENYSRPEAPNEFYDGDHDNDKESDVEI
T3 sequence (O75376 395-489 partner limits assumed): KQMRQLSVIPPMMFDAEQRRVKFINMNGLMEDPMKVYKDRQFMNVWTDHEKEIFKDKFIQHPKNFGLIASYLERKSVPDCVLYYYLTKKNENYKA
T1 sequence (Q13547 whole entry): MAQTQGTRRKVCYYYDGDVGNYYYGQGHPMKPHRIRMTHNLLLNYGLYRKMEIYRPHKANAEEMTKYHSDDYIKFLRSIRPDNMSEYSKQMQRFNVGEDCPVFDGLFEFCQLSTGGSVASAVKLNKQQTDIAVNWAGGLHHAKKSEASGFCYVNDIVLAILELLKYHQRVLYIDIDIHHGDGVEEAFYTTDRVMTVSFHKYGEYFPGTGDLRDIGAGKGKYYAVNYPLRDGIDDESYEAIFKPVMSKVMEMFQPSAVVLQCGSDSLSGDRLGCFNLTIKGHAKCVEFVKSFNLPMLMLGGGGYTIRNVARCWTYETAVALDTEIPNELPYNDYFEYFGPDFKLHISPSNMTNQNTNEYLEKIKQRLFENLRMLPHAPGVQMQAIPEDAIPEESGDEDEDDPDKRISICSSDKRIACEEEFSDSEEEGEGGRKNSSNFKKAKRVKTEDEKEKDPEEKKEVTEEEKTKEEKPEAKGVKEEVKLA
T2 sequence (Q92769 whole entry): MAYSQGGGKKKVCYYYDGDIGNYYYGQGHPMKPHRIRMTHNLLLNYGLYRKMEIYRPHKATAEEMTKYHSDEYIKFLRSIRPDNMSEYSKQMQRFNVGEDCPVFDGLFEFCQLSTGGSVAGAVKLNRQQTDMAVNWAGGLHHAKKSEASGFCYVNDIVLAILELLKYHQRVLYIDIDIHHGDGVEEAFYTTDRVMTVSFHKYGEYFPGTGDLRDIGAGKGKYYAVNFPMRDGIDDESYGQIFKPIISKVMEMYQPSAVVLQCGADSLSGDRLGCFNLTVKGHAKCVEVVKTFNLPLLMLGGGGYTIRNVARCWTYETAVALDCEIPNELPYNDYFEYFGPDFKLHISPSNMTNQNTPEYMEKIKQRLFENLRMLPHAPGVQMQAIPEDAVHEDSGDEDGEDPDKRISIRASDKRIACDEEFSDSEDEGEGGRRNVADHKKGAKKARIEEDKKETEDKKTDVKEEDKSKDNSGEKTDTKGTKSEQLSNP

By inhibition is commonly meant how much of the control response was suppressed. Regarding `CN(C(=O)OCc1cc(C(F)(F)F)cc(C(F)(F)F)c1)C1CCc2cc(/C=C/C(=O)NO)ccc21` (stereo not drawn) [Compound 64, 3,5-bis(trifluoromethyl)benzyl (E)-(5-(3-(hydroxyamino)-3-oxoprop-1-en-1-yl)-2,3-dihydro-1H-inden-1-yl)(methyl)carbamate], in experiment [1], the inhibition at 2 µM lay within 50 to 80%, the inhibition at 10 µM was > 80% and the inhibition at 50 µM was > 80%. Further, in experiment [2], the inhibition at 2 µM lay within 50 to 80%, the inhibition at 10 µM was > 80% and the inhibition at 50 µM was > 80%. For the same compound, in experiment [3], the inhibition at 2 µM was < 50%, the inhibition at 10 µM was 50 to 80% and the inhibition at 50 µM was > 80%. Moreover, in experiment [4], the inhibition at 4 µM is 50 to 80%, the inhibition at 20 µM fell in the range of 50 to 80% and the inhibition at 50 µM fell in the range of 50 to 80%.

Regarding `O=C(CCCCNC(=O)c1ccc2c(c1)CC/C(=C\c1cc(C(F)(F)F)cc(C(F)(F)F)c1)C2=O)NO` [Compound 81, (E)-6-(3,5-bis(trifluoromethyl)benzylidene)-N-(5-(hydroxyamino)-5-oxopentyl)-5-oxo-5,6,7,8-tetrahydronaphthalene-2-carboxamide], in experiment [1], the inhibition at 2 µM is < 50%, the inhibition at 10 µM is < 50% and the inhibition at 50 µM was in the range of 50 to 80%. In experiment [2], the inhibition at 2 µM is < 50%, the inhibition at 10 µM is < 50% and the inhibition at 50 µM was 50 to 80%. Further, in experiment [3], the inhibition at 2 µM was < 50%, the inhibition at 10 µM is 50 to 80% and the inhibition at 50 µM fell in the range of 50 to 80%. In addition, in experiment [4], the inhibition at 4 µM was > 80%, the inhibition at 20 µM is > 80% and the inhibition at 50 µM is > 80%.

As for `O=C(CCCCCCC(=O)Nc1ccc2c(c1)CCCC2=O)NO` [Compound 1, N^1-hydroxy-N^8-(5-oxo-5,6,7,8-tetrahydronaphthalen-2-yl)octanediamide], in experiment [1], the inhibition at 2 µM was > 80%, the inhibition at 10 µM was > 80% and the inhibition at 50 µM was > 80%. Moreover, in experiment [2], the inhibition at 2 µM was > 80%, the inhibition at 10 µM was > 80% and the inhibition at 50 µM is > 80%. In addition, in experiment [3], the inhibition at 2 µM was > 80%, the inhibition at 10 µM was > 80% and the inhibition at 50 µM was > 80%. For the same compound, in experiment [4], the inhibition at 4 µM was < 50%, the inhibition at 20 µM was < 50% and the inhibition at 50 µM was < 50%.

As to `O=C(/C=C/c1ccc2c(c1)CCCC2NC(=O)c1cc(C(F)(F)F)cc(C(F)(F)F)c1)NO` (stereo not drawn) [Compound 24, (E)-N-(6-(3-(hydroxyamino)-3-oxoprop-1-en-1-yl)-1,2,3,4-tetrahydronaphthalen-1-yl)-3,5-bis(trifluoromethyl)benzamide], in experiment [1], the inhibition at 2 µM was < 50%, the inhibition at 10 µM was < 50% and the inhibition at 50 µM was 50 to 80%. In experiment [2], the inhibition at 2 µM is < 50%, the inhibition at 10 µM is < 50% and the inhibition at 50 µM fell in the range of 50 to 80%. Further, in experiment [3], the inhibition at 2 µM was < 50%, the inhibition at 10 µM is < 50% and the inhibition at 50 µM is < 50%. In experiment [4], the inhibition at 4 µM was < 50%, the inhibition at 20 µM was < 50% and the inhibition at 50 µM is < 50%.

For `Cc1[nH]c2ccccc2c1CCNC1CCCc2cc(/C=C/C(=O)Nc3ccc(F)cc3N)ccc21` (stereo not drawn) [Compound 62, (E)-N-(2-amino-4-fluorophenyl)-3-(5-((2-(2-methyl-1H-indol-3-yl)ethyl)amino)-5,6,7,8-tetrahydronaphthalen-2-yl)acrylamide], in experiment [1], the inhibition at 2 µM was 50 to 80%, the inhibition at 10 µM was > 80% and the inhibition at 50 µM is > 80%. In addition, in experiment [2], the inhibition at 2 µM was > 80%, the inhibition at 10 µM was > 80% and the inhibition at 50 µM is > 80%. In addition, in experiment [3], the inhibition at 2 µM was 50 to 80%, the inhibition at 10 µM is > 80% and the inhibition at 50 µM is > 80%. Moreover, in experiment [4], the inhibition at 4 µM was < 50%, the inhibition at 20 µM is < 50% and the inhibition at 50 µM was < 50%.

Take `O=C(CCCCCN(CC(=O)NC1CCc2ccccc21)CC(=O)NC1CCc2ccccc21)NO` (stereo not drawn) [Compound 45, 2,2′-((6-(hydroxyamino)-6-oxohexyl)azanediyl)bis(N-(2,3-dihydro-1H-inden-1-yl)acetamide)]: in experiment [1], the inhibition at 2 µM was > 80%, the inhibition at 10 µM is > 80% and the inhibition at 50 µM was > 80%. In experiment [2], the inhibition at 2 µM is > 80%, the inhibition at 10 µM was > 80% and the inhibition at 50 µM is > 80%. In addition, in experiment [3], the inhibition at 2 µM was > 80%, the inhibition at 10 µM is > 80% and the inhibition at 50 µM is > 80%. For the same compound, in experiment [4], the inhibition at 4 µM is < 50%, the inhibition at 20 µM is < 50% and the inhibition at 50 µM was < 50%.

`O=C(/C=C/c1ccc2c(c1)CCC2NCCc1c[nH]c2ccccc12)NO` (stereo not drawn) [Compound 58, (E)-3-(1-((2-(1H-indol-3-yl)ethyl)amino)-2,3-dihydro-1H-inden-5-yl)-N-hydroxyacrylamide]: in experiment [1], the inhibition at 2 µM is > 80%, the inhibition at 10 µM was > 80% and the inhibition at 50 µM is > 80%. In addition, in experiment [2], the inhibition at 2 µM is > 80%, the inhibition at 10 µM was > 80% and the inhibition at 50 µM is > 80%. Further, in experiment [3], the inhibition at 2 µM is > 80%, the inhibition at 10 µM was > 80% and the inhibition at 50 µM was > 80%. Moreover, in experiment [4], the inhibition at 4 µM was < 50%, the inhibition at 20 µM is < 50% and the inhibition at 50 µM fell in the range of 50 to 80%.

On to `Nc1cc(F)ccc1NC(=O)CCCCCCC(=O)NC1CCc2cc(Br)ccc21` (stereo not drawn) [Compound 39, N^1-(2-amino-4-fluorophenyl)-N8-(5-bromo-2,3-dihydro-1H-inden-1-yl)octanediamide], for which, in experiment [1], the inhibition at 2 µM was < 50%, the inhibition at 10 µM is < 50% and the inhibition at 50 µM was < 50%. Besides, in experiment [2], the inhibition at 2 µM is < 50%, the inhibition at 10 µM was < 50% and the inhibition at 50 µM is < 50%. Moreover, in experiment [3], the inhibition at 2 µM is < 50%, the inhibition at 10 µM is 50 to 80% and the inhibition at 50 µM lay within 50 to 80%. In experiment [4], the inhibition at 4 µM was < 50%, the inhibition at 20 µM was < 50% and the inhibition at 50 µM is < 50%.

For the compound `O=C(/C=C/c1ccc2c(c1)CCCC2NCCc1c[nH]c2ccccc12)NO` (stereo not drawn) [Compound 61, (E)-3-(5-((2-(1H-indol-3-yl)ethyl)amino)-5,6,7,8-tetrahydronaphthalen-2-yl)-N-hydroxy acrylamide], in experiment [1], the inhibition at 2 µM is > 80%, the inhibition at 10 µM is > 80% and the inhibition at 50 µM is > 80%. Further, in experiment [2], the inhibition at 2 µM is > 80%, the inhibition at 10 µM was > 80% and the inhibition at 50 µM was > 80%. In experiment [3], the inhibition at 2 µM was > 80%, the inhibition at 10 µM is > 80% and the inhibition at 50 µM was > 80%. In addition, in experiment [4], the inhibition at 4 µM is < 50%, the inhibition at 20 µM is < 50% and the inhibition at 50 µM was < 50%.

In the case of `O=C(CCCCCCC(=O)NC1CCCc2cc(Br)ccc21)NO` (stereo not drawn) [Compound 46, N1-(6-bromo-1,2,3,4-tetrahydronaphthalen-1-yl)-N8-hydroxyoctanediamide], in experiment [1], the inhibition at 2 µM was < 50%, the inhibition at 10 µM was in the range of 50 to 80% and the inhibition at 50 µM is 50 to 80%. Also, in experiment [2], the inhibition at 2 µM was < 50%, the inhibition at 10 µM lay within 50 to 80% and the inhibition at 50 µM was > 80%. Besides, in experiment [3], the inhibition at 2 µM was < 50%, the inhibition at 10 µM was < 50% and the inhibition at 50 µM lay within 50 to 80%. Besides, in experiment [4], the inhibition at 4 µM is < 50%, the inhibition at 20 µM is < 50% and the inhibition at 50 µM is < 50%.

For the compound `CN(C)c1ccc(CCNC2CCc3cc(/C=C/C(=O)NO)ccc32)cc1` (stereo not drawn) [Compound 56, (E)-3-(1-((4-(dimethylamino)phenethyl)amino)-2,3-dihydro-1H-inden-5-yl)-N-hydroxyacrylamide], in experiment [1], the inhibition at 2 µM is > 80%, the inhibition at 10 µM is > 80% and the inhibition at 50 µM was > 80%. Moreover, in experiment [2], the inhibition at 2 µM was > 80%, the inhibition at 10 µM is > 80% and the inhibition at 50 µM was > 80%. Also, in experiment [3], the inhibition at 2 µM was > 80%, the inhibition at 10 µM was > 80% and the inhibition at 50 µM was > 80%. Also, in experiment [4], the inhibition at 4 µM is < 50%, the inhibition at 20 µM was < 50% and the inhibition at 50 µM is < 50%.

The values are drawn from US12162820B2 (TAIWANJ PHARMACEUTICALS CO., LTD., priority 2019, dated 2024).
